Test results taken from the supplement of paper PMC11451515.

Legend:
Assay in all cases: AUC of viability dose-response curve (% viability x log10 dose units); higher = less sensitive
Settings in all cases: 48 h
[1] = tested on: SEM cells
Outline: (§1)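 Area under the curve was integrated by trapezoidal rule from a log-logistic fit of normalised viability, with curves exceeding full viability scaled and quality-control failures removed. The fit had four parameters over log10 doses. Viability came from CellTiter-Glo One luminescence, normalised per plate to DMSO and cell-free wells, after leukemia cells adapted to each medium (500 or 1000 cells/well, 1536-well plates) were exposed to library compounds in DMSO for 48 h at 37°C. The 11 threefold doses ran from 47 μM to 0.79 nM.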

[2] = tested on: P12-Ichikawa
Outline: as §1

[3] = tested on: NOMO1
Outline: as §1

[4] = RPMI 5 mM glucose + 10% dialyzed FBS

Row | Structure (SMILES) | AUC of viability dose-response curve ([1]; HPLM + 10% dialyzed FBS) | AUC of viability dose-response curve ([1]; RPMI 5 mM glucose + 10% FBS) | AUC of viability dose-response curve [1, 4] | AUC of viability dose-response curve ([2]; HPLM + 10% dialyzed FBS) | AUC of viability dose-response curve ([2]; RPMI 5 mM glucose + 10% FBS) | AUC of viability dose-response curve [2, 4] | AUC of viability dose-response curve ([3]; HPLM + 10% dialyzed FBS) | AUC of viability dose-response curve ([3]; RPMI 5 mM glucose + 10% FBS) | AUC of viability dose-response curve [3, 4]
1 | COc1ccc(-c2ccc3c(N4CCOC[C@@H]4C)nc(N4CCOC[C@@H]4C)nc3n2)cc1CO | 310 | 310 | 316 | 353 | 296 | 311 | 293 | 359 | 337
2 | C[C@]1(c2nc3c(C(N)=O)cccc3[nH]2)CCCN1 | 372 | 393 | 352 | 399 | 353 | 356 | 368 | 349 | 374
3 | CCn1c(-c2nonc2N)nc2cnc(Oc3cccc(NC(=O)c4ccc(OCCN5CCOCC5)cc4)c3)cc21 | 457 | 442 | 456 | 446 | 427 | 438 | 456 | 432 | 429
4 | C/C=C1\C2C=C(C)CC1(N)c1ccc(=O)[nH]c1C2 (configuration not stated) | 442 | 458 | 463 | 471 | 447 | 442 | 463 | 467 | 465
5 | C[C@@H]\1CC(=O)N\N=C1C2=CC=C(NN=C(C#N)C#N)C=C2 | 397 | 368 | 393 | 424 | 417 | 392 | 426 | 410 | 413
6 | COc1cc2ncnc(Nc3ccc(F)c(Cl)c3)c2cc1NC(=O)/C=C/CN1CCCCC1 | 417 | 415 | 416 | 433 | 444 | 436 | 408 | 426 | 418
7 | Nc1ncnc2c1c(-c1cnc3[nH]ccc3c1)nn2C1CCCC1 | 356 | 306 | 360 | 379 | 343 | 326 | 364 | 388 | 397
8 | CC(C)NC[C@@H](C(=O)N1CCN(c2ncnc3c2[C@H](C)C[C@H]3O)CC1)c1ccc(Cl)cc1 | 257 | 251 | 249 | 367 | 350 | 362 | 411 | 444 | 419
